These results are taken from US20160279269A1, “METHOD AND REAGENT FOR PREPARING A DIAGNOSTIC COMPOSITION” (GE HEALTHCARE AS, priority 2013, published 2016).

This series can be described thus: Measured osmolality of ioforminol injection solution, including on dilution and after autoclaving. The class given is physicochemical. On the procedure: Isotonicity—A solution is isotonic with human blood plasma if no net water migration takes place over the blood cell membranes after mixing the solution with human blood. This means that the measured osmolality of the solution is equal to that of human blood plasma (approx. 290 mOsmol/kg water). This is the goal for any parenteral drug formulation, being more important if injection volumes are relatively large (typically >10 ml) and if injection rate is fast.
Ioforminol 320 mg I/ml injection contains […]. With a molar weight of 1522,13 Dalton, this would be 420.3 mM. This concentrated solution contains 699 g water per litre. Density is 1.357 kg/litre, thus the weight of one litre Ioforminol 320 mg I/ml injection is 1.357 kg. Water is therefore only about half of the weight. Theoretical estimation of osmolality would be 601.5 mOsmol/kg water given 420.3 mM ioforminol, no dissociation under dissolution and 699 g water as solvent.
Knowing that blood plasma osmolality is approx. 290 mOsmol/kg water, such a solution would be hypertonic by a factor 2 even without other components/solutes. Yet measured osmolality of the complete formulation of ioforminol 320 mg I/ml was around 290 mOsmol/kg water. When one subtracts the contribution to osmolality of the other components in the formulation (Tris, EDTA, NaCl and CaCl2), the net contribution of ioforminol was around 129 mOsmol/kg, not around 600 mOsmol/kg. This is approximately 22% of the expected theoretical osmolality if every ioforminol molecule would act as one hydrated particle.
This can be attributed to the very high concentration of ioforminol in the 320 mg I/ml solution. […] However, the percentage only increases to approximately 36% when the concentrated ioforminol composition was diluted more than fourfold. The result of this phenomenon is the linear correlation between ioforminol concentration, salt concentration and osmolality in the interval 70-330 mg I/ml Ioforminol.

As for `O=CN(CC(O)CN(C=O)c1c(I)c(C(=O)NCC(O)CO)c(I)c(C(=O)NCC(O)CO)c1I)c1c(I)c(C(=O)NCC(O)CO)c(I)c(C(=O)NCC(O)CO)c1I` (centres unmarked) [ioforminol, 5-[formyl-[3-[formyl-[3,5-bis(2,3-dihydroxypropylcarbamoyl)-2,4,6-triiodophenyl]amino]-2-hydroxypropyl]amino]-N,N′-bis(2,3-dihydroxypropyl)-2,4,6-triiodobenzene-1,3-dicarboxamide], under “320 mg I/ml, contribution of Tris, EDTA, NaCl and CaCl2 subtracted”, the “net contribution of ioforminol to osmolality” value is “around 129 mOsmol/kg”. Besides, the “percentage of the expected theoretical osmolality” value is reported as “approximately 22%” (320 mg I/ml, theoretical = every ioforminol molecule acts as one hydrated particle) and “approximately 36%” (after more than fourfold dilution from 320 to 70 mg I/ml). The “percentage contribution to osmolality after autoclaving” value (121° C. for approximately 15 minutes) is “does not change”. Further, the “osmolality compared to theoretical value” (aqueous solution, theoretical = one molecule acts as one hydrated particle) is given as “lower”.
